Assay results from the supplement of paper PMC10307832.

Columns and labels:
Assay in all cases: relative viability (nuclei count vs DMSO), 5 days (fraction); higher = more cells survive
Dabrafenib + Lapatinib = compound: CC(C)(C)c1nc(-c2cccc(NS(=O)(=O)c3c(F)cccc3F)c2F)c(-c2ccnc(N)n2)s1 [Dabrafenib] + CS(=O)(=O)CCNCc1ccc(-c2ccc3ncnc(Nc4ccc(OCc5cccc(F)c5)c(Cl)c4)c3c2)o1 [Lapatinib] (partner 2 µM)
Outline: (§1)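 A single step with final 0.05% Triton X-100, 1% formaldehyde and 1 ug/ml Hoechst fixed the cells and stained nuclei 5 days after treatment. Lung cancer cell lines in 1536-well plates had been treated by pin tool the day after seeding with one drug alone or a fixed anchor-drug dose plus five library-drug doses (not always all listed) in √10 steps, and nuclei were counted on 4× images. Relative viability is the ratio of nuclei in treated wells to nuclei in vehicle wells, taken as the median of duplicate plates.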

VX-702 + Alpelisib = compound: NC(=O)c1ccc(N(C(N)=O)c2c(F)cccc2F)nc1-c1ccc(F)cc1F [VX-702] + Cc1nc(NC(=O)N2CCC[C@H]2C(N)=O)sc1-c1ccnc(C(C)(C)C(F)(F)F)c1 [Alpelisib] (partner 2 µM)
Outline: as §1

VX-702 + Lapatinib = compound: NC(=O)c1ccc(N(C(N)=O)c2c(F)cccc2F)nc1-c1ccc(F)cc1F [VX-702] + CS(=O)(=O)CCNCc1ccc(-c2ccc3ncnc(Nc4ccc(OCc5cccc(F)c5)c(Cl)c4)c3c2)o1 [Lapatinib] (partner 2 µM)
Outline: as §1

Dabrafenib + Pictilisib = compound: CC(C)(C)c1nc(-c2cccc(NS(=O)(=O)c3c(F)cccc3F)c2F)c(-c2ccnc(N)n2)s1 [Dabrafenib] + CS(=O)(=O)N1CCN(Cc2cc3nc(-c4cccc5[nH]ncc45)nc(N4CCOCC4)c3s2)CC1 [Pictilisib] (partner 1 µM)
Outline: as §1

| Cell Line | relative viability (Dabrafenib + Lapatinib; first compound 0.003 µM) | relative viability (Dabrafenib + Lapatinib; first compound 0.009487 µM) | relative viability (Dabrafenib + Lapatinib; first compound 0.03 µM) | relative viability (Dabrafenib + Lapatinib; first compound 0.09487 µM) | relative viability (Dabrafenib + Lapatinib; first compound 0.3 µM) | relative viability (VX-702 + Alpelisib; first compound 0.02 µM) | relative viability (VX-702 + Alpelisib; first compound 0.2 µM) | relative viability (VX-702 + Alpelisib; first compound 0.6325 µM) | relative viability (VX-702 + Alpelisib; first compound 2 µM) | relative viability (VX-702 + Lapatinib; first compound 0.02 µM) | relative viability (VX-702 + Lapatinib; first compound 0.2 µM) | relative viability (VX-702 + Lapatinib; first compound 0.6325 µM) | relative viability (VX-702 + Lapatinib; first compound 2 µM) | relative viability (Dabrafenib + Pictilisib; first compound 0.003 µM) | relative viability (Dabrafenib + Pictilisib; first compound 0.009487 µM) | relative viability (Dabrafenib + Pictilisib; first compound 0.03 µM) | relative viability (Dabrafenib + Pictilisib; first compound 0.09487 µM) | relative viability (Dabrafenib + Pictilisib; first compound 0.3 µM) |
| --- | --- | --- | --- | --- | --- | --- | --- | --- | --- | --- | --- | --- | --- | --- | --- | --- | --- | --- |
| NCI-H2347 | 0.631 | 1.02 | 0.918 | 0.897 | 0.89 | 1.01 | 1.12 | 1.05 | 1.14 | 0.996 | 0.813 | 0.891 | 0.902 | 0.693 | 0.6 | 0.381 | 0.57 | 0.459 |
| NCI-H2405 | – | 0.804 | – | 0.853 | 0.937 | 0.672 | 0.766 | 0.774 | 0.949 | 1.23 | 0.761 | 1.02 | 1.46 | – | 0.305 | – | 0.314 | 0.316 |
| NCI-H3122 | 1.05 | 1.08 | 1.04 | 0.959 | 1.08 | 0.822 | 0.735 | 0.676 | 0.859 | 1.07 | 0.977 | 1.04 | 1.03 | 0.581 | 0.629 | 0.793 | 0.692 | 0.719 |
| PC-3 [JPC-3] | 0.448 | 0.509 | 0.416 | 0.434 | 0.429 | 1.02 | 1.06 | 1.07 | 1.02 | 0.468 | 0.461 | 0.442 | 0.414 | 0.642 | 0.982 | 0.916 | 0.745 | 0.818 |
| PC-14 | 0.282 | 0.418 | 0.363 | 0.317 | 0.364 | 1.05 | 0.912 | 0.927 | 1.01 | 0.363 | 0.245 | 0.311 | 0.29 | 0.761 | 0.862 | 0.655 | 0.688 | 0.696 |
| RERF-LC-KJ | 0.851 | 0.9 | 0.893 | 0.907 | 1.04 | 0.969 | 0.69 | 0.8 | 0.794 | 0.891 | 0.801 | 0.888 | 0.933 | 0.575 | 0.592 | 0.455 | 0.616 | 0.748 |
| SK-LU-1 | – | 0.804 | 0.653 | 0.664 | 0.719 | 1.08 | 0.972 | 1.04 | 1.34 | 1.09 | 0.885 | 0.887 | 1.29 | – | 0.668 | 0.385 | 0.416 | 0.397 |
| SK-MES-1 | 0.418 | 0.546 | 0.525 | 0.506 | 0.598 | 0.739 | 0.822 | 0.853 | 0.918 | 0.449 | 0.407 | 0.458 | 0.43 | 0.363 | 0.416 | 0.269 | 0.376 | 0.377 |
| SW 1573 | 0.883 | 0.864 | 1.17 | 1.1 | 1.11 | 0.789 | 0.64 | 0.759 | 0.652 | 1.05 | 1.13 | 1.05 | 0.919 | 0.501 | 0.474 | 0.454 | 0.426 | 0.505 |
| UMC-11 | 1.01 | 1.08 | 0.812 | 1.08 | 0.959 | 0.954 | 0.973 | 0.955 | 1.29 | 0.866 | 0.908 | 0.769 | 1.04 | 0.749 | 0.819 | 0.621 | 0.832 | 0.888 |
